From publication PMC9673142, “1,3-Diarylpyrazolyl-acylsulfonamides Target HadAB/BC Complex in Mycobacterium tuberculosis” (ACS Infectious Diseases, 2022)
In brackets after ≈: the same amount, converted by molar mass.

What was measured:
Mtb/pNIP40b-hadABC = assay: microbe, parasite or virus in culture; type: cell-based; settings: Mycobacterium tuberculosis, read-out: MIC Mtb/pNIP40b-hadABC
[1] = test system: EthA mutant (C253R) of Mtb; settings: cited from earlier work
[2] = test system: compound 1-resistant Mtb mutants (SRM59, Rv0637/hadC:K157R); type: cell-based, Mycobacterium tuberculosis

## O=c1[nH]nc(CCc2cn(-c3ccc(Br)cc3)nc2-c2ccc(Cl)cc2)o1 [Compound 12]
Mtb/pNIP40b-hadABC
  MIC: 12.5 µM (≈ 5.57 µg/mL)

## CS(=O)(=O)NC(=O)NCc1cn(-c2ccc(C(F)(F)F)nc2)nc1-c1ccncc1 [Compound 11]
Mtb/pNIP40b-hadABC
  MIC: > 40 µM

## CC(=O)Nc1ccc(/C=N/NC(N)=S)cc1 [TAC, thioacetazone, reference compound]
[1]
  resistance of EthA mutant (C253R): 4–8 folds

## CS(=O)(=O)NC(=O)CCc1cn(-c2ccc(Cl)cc2)nc1-c1ccc(Cl)cc1 [Compound 2]
Mtb/pNIP40b-hadABC
  MIC: 2.5 µM (≈ 1.1 µg/mL)
[1]
  change in MIC against EthA mutant (C253R): no change

## CS(=O)(=O)NC(=O)CCc1cn(-c2ccc(Br)cc2)nc1-c1ccncc1 [Compound 1]
[2]
  Compound 1 MIC, SRM59-1: 50 to 100 µM
  Compound 1 MIC, SRM59-2: 50 to 100 µM
  Compound 1 MIC, SRM59-3: 50 to 100 µM
[1]
  change in MIC against EthA mutant (C253R): no change

## O=C(O)CCc1cn(-c2ccc(Br)cc2)nc1-c1ccc(Cl)cc1 [Compound 10]
Mtb/pNIP40b-hadABC
  MIC: 3 µM (≈ 1.22 µg/mL)

## CCc1c(COC(=O)NS(C)(=O)=O)c(-c2ccc(Cl)cc2)nn1-c1ccc(Cl)cc1 [Compound 15]
Mtb/pNIP40b-hadABC
  MIC: 7.8 µM (≈ 3.65 µg/mL)

## CS(=O)(=O)c1nnc(Cc2cn(-c3ccc(Cl)cc3)nc2-c2ccncc2)o1 [Compound 13]
Mtb/pNIP40b-hadABC
  MIC: 1.9 µM (≈ 0.79 µg/mL)

## CC(C)CCOc1ccc(NC(=S)Nc2ccc(OCCC(C)C)cc2)cc1 [ISO, isoxyl, reference compound]
[1]
  resistance of EthA mutant (C253R): 4–8 folds
